The source of these data is ChEMBL document CHEMBL1681676, “The design and synthesis of novel N-hydroxyformamide inhibitors of ADAM-TS4 for the treatment of osteoarthritis” (Bioorg Med Chem Lett, 2011).

The nature of series [1]: Clearance in Han Wistar rat at 2 mg/kg, iv by LC-MS/MS analysis. The following applies: in vivo. Further details: dose 2 mg/kg, route intravenous. Type of series: ADME, organism-based.
A short description of series [2]: Half life in Han Wistar rat at 2 mg/kg, iv and po by LC-MS/MS analysis. Type of series: ADME, organism-based. Further details: dose 2 mg/kg, route oral. The settings on record: in vivo.
For series [3], the target named is 72 kDa type IV collagenase (Homo sapiens, UniProt P08253). Nature of the series: Inhibition of recombinant human MMP2 assessed as substrate cleavage by measuring increase in fluorescence after 16 hrs.
Series [4] concerns the target Disintegrin and metalloproteinase domain-containing protein 17 (Homo sapiens, UniProt P78536). Nature of the series: Inhibition of TACE assessed as substrate cleavage by measuring increase in fluorescence after 16 hrs.
Series [5] can be described thus: Clearance in Beagle dog at 1 mg/kg, iv by LC-MS/MS analysis. Type of series: ADME, organism-based, Canis lupus familiaris. Also noted: dose 1 mg/kg, route intravenous. The following applies: in vivo.
The next series relates to Rattus norvegicus. Nature of the series: Volume of distribution at steady state in Han Wistar rat at 2 mg/kg, iv and po by LC-MS/MS analysis. Further details: dose 2 mg/kg, route oral. The following applies: in vivo. It counts as ADME, organism-based.
In another series the test system is Canis familiaris. Kind of series: Volume of distribution at steady state in Beagle dog at 1 mg/kg, iv and po by LC-MS/MS analysis. Type of series: ADME, organism-based, Canis lupus familiaris. Further details: dose 1 mg/kg, route oral. The following applies: in vivo.
Series [6] is described as follows: Oral bioavailability in Han Wistar rat at 2 mg/kg by LC-MS/MS analysis. It counts as ADME, organism-based. The settings on record: in vivo.
Series [7] in a line: Oral bioavailability in Beagle dog at 1 mg/kg by LC-MS/MS analysis. Type of series: ADME, organism-based, Canis lupus familiaris. The following applies: in vivo.
A short description of series [8]: Oral bioavailability in mouse by LC-MS/MS analysis. It counts as ADME, organism-based. The settings on record: in vivo.
The nature of series [9]: Inhibition of aggrecanase-mediated aggrecan degradation in IL-1-stimulated bovine nasal cartilage explant after 48 hrs by immunoblot method. Type of series: tissue-based, Bos taurus.
A short description of series [10]: Inhibition of aggrecanase-mediated aggrecan degradation in IL-1 and oncostatin M-stimulated human knee osteoarthritic cartilage after 48 hrs by immunoblot method. On the technique in general: Immunoblotting shows a protein as a band on a membrane.
The nature of series [11]: Half life in Beagle dog at 1 mg/kg, iv and po by LC-MS/MS analysis. It counts as ADME, organism-based, Canis lupus familiaris. Also noted: dose 1 mg/kg, route oral. The settings on record: in vivo.
Another series concerns the target T1, Interstitial collagenase (Homo sapiens, UniProt P03956).
T1 sequence (P03956 whole entry): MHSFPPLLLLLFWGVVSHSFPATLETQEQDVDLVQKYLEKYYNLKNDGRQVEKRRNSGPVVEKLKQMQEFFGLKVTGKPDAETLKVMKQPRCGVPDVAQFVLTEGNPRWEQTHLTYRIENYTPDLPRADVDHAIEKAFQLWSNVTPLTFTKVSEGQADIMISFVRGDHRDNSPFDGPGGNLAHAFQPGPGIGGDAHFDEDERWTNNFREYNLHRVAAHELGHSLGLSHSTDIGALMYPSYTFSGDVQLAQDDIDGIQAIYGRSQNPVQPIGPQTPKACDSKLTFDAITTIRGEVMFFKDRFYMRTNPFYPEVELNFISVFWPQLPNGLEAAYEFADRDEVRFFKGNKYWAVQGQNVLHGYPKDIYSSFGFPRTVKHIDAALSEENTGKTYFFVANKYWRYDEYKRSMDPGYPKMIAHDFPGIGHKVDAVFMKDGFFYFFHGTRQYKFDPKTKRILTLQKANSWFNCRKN
Nature of the series: Inhibition of recombinant human MMP1 assessed as substrate cleavage by measuring increase in fluorescence after 16 hrs.

Another series concerns the target Collagenase 3 (Homo sapiens, UniProt P45452). Kind of series: Inhibition of recombinant human MMP13 assessed as substrate cleavage by measuring increase in fluorescence after 16 hrs.
The target of series [12] is Matrix metalloproteinase-14 (Homo sapiens, UniProt P50281). Nature of the series: Inhibition of recombinant human MMP14 assessed as substrate cleavage by measuring increase in fluorescence after 16 hrs.
Another series concerns the target Cytochrome P450 3A4 (Homo sapiens, UniProt P08684). Nature of the series: Inhibition of CYP3A4. It counts as ADME.
Series [13] concerns the target Voltage-gated inwardly rectifying potassium channel KCNH2 (Homo sapiens, UniProt Q12809). Kind of series: Inhibition of human ERG.
Series [14] can be described thus: Intrinsic clearance in human liver microsomes. Background: Liver microsomes are vesicles of endoplasmic reticulum, rich in cytochrome P450 enzymes.
A short description of series [15]: Intrinsic clearance in rat hepatocytes measured per 10^6 cells. Type of series: ADME, cell-based, Liver, Hepatocyte.
Series [16] is described as follows: Oral bioavailability in Han Wistar rat at 3 to 10 mg/kg by LC-MS/MS analysis. Type of series: ADME, organism-based. The following applies: in vivo.

Bounds are passed on as bounds.

Sequence of Cytochrome P450 3A4 (P08684 whole entry): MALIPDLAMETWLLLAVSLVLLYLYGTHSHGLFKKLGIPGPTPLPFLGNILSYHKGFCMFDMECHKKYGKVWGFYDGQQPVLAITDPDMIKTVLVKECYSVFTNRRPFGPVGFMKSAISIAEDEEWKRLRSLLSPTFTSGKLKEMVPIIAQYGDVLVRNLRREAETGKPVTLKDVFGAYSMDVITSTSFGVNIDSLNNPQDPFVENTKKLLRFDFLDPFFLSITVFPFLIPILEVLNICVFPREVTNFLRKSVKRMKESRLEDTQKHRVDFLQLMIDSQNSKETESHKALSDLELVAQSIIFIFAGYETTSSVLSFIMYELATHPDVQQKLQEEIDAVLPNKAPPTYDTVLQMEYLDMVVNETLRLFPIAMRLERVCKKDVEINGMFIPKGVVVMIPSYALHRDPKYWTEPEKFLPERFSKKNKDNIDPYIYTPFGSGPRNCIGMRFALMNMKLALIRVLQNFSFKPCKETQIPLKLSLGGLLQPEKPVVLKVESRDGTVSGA
Sequence of 72 kDa type IV collagenase (P08253 whole entry, the tested form may be a part): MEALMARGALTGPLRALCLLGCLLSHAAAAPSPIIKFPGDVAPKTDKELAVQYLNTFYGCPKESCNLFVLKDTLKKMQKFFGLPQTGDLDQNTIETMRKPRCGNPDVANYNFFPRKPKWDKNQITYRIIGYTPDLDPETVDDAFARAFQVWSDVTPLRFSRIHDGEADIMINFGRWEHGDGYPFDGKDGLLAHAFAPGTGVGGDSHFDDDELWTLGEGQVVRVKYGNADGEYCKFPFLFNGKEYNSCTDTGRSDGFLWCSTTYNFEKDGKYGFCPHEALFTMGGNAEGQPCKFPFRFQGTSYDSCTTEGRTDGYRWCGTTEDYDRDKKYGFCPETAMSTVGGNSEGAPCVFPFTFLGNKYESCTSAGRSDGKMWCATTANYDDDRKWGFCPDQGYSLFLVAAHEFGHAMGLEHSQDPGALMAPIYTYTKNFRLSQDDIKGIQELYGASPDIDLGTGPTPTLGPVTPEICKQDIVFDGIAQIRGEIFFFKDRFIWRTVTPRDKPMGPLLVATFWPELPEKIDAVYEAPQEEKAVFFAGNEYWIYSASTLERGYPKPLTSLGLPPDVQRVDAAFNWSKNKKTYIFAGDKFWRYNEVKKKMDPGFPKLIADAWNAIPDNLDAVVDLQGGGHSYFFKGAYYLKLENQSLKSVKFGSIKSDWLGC
Sequence of Voltage-gated inwardly rectifying potassium channel KCNH2 (Q12809 whole entry): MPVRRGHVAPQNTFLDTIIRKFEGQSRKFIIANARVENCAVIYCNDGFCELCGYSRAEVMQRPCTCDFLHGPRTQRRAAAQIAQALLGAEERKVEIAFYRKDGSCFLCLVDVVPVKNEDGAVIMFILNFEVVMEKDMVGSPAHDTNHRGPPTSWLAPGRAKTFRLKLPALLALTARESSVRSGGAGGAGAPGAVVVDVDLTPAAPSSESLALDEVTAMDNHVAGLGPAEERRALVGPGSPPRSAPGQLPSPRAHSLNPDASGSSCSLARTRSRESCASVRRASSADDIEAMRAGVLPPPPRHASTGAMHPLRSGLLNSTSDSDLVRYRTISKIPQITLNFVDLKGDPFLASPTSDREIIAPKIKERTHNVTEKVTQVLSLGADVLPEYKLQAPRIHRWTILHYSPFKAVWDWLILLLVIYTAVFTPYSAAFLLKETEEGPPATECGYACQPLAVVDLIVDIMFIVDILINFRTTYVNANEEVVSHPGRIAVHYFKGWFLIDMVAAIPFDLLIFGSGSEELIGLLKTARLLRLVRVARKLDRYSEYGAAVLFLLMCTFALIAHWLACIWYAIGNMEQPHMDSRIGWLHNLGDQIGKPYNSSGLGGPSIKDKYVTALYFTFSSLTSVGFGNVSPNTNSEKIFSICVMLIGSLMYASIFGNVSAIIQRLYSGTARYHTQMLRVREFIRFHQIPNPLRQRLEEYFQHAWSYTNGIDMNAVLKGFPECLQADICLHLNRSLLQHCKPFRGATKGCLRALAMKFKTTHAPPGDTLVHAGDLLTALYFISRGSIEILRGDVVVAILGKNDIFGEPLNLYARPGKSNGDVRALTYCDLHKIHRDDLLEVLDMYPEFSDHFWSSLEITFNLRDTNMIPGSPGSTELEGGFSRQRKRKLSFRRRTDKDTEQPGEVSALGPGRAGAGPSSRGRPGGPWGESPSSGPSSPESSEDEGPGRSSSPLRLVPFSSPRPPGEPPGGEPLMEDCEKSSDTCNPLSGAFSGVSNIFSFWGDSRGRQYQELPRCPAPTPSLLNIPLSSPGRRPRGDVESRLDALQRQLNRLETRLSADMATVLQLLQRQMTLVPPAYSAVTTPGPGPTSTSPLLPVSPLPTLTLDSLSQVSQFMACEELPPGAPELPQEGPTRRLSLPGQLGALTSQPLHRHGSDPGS
Sequence of Disintegrin and metalloproteinase domain-containing protein 17 (P78536 whole entry, the tested form may be a part): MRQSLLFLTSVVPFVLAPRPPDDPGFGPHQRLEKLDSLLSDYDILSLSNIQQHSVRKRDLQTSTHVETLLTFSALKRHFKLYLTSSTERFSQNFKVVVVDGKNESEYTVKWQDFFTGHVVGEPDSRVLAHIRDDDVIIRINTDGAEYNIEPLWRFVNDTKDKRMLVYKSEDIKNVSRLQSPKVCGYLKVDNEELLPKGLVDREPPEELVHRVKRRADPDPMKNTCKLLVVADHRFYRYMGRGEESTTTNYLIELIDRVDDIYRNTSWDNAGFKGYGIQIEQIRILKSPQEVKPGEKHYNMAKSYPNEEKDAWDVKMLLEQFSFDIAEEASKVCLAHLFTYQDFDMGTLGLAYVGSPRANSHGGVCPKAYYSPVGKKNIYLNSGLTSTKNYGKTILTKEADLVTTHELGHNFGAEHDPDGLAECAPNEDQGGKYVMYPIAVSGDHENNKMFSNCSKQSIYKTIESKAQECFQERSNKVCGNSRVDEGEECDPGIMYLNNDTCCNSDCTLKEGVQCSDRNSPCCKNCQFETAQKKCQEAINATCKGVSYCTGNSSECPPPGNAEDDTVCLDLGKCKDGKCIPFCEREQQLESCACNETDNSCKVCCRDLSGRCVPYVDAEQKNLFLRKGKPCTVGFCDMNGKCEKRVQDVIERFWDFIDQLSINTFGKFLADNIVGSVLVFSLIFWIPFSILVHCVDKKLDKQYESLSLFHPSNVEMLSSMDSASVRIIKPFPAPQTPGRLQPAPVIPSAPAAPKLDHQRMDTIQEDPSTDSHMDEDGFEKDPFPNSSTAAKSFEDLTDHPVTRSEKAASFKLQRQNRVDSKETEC

As usually defined, the clearance is the rate of elimination divided by the concentration. Low values mean inefficient removal, high ones efficient removal. As usually defined, the half-life is the time needed for the level to fall by half in the phase considered. A word on the IC50: it is the concentration that inhibits the measured activity by half. A word on the bioavailability: it is dose-corrected exposure relative to a reference, in per cent. Read a high bioavailability as much systemic uptake. For `Cc1noc(C)c1CCC1CCN(S(=O)(=O)C[C@](C)(C[C@H](C)c2ncc(F)cn2)N(O)C=O)CC1`, the clearance in [1] is 11 mL/min/kg; in series [5], 20 mL/min/kg. Besides, the half-life is 11 h in series [2] and 11.3 h in series [11]. For the same compound, the IC50 in series [3] is greater than 6300 nM; in [4] it was 250 nM; in series [9] it was 310 nM; in series [10], 243 nM; on Interstitial collagenase it was greater than 19000 nM; at Collagenase 3, greater than 8100 nM. Moreover, in series [12], the IC50 was greater than 8900 nM. For the same compound, the Vdss in the series with Rattus norvegicus worked out at 7.4 L/kg; with Canis familiaris it was 9.21 L/kg. The bioavailability was found to be 3.5% in [6], 20% in [7] and 34% in [8].
The microsomal CLint is the capacity of the preparation to metabolise the compound, expressed as a volume cleared per time. Low values mean slow turnover, high ones rapid turnover. As usually defined, the hepatocyte CLint is the capacity of the preparation to metabolise the compound, expressed as a volume cleared per time. Regarding `C[C@@H](C[C@@](C)(CS(=O)(=O)N1CCC(OCc2ccc(Cl)cc2Cl)CC1)N(O)C=O)c1ncc(F)cn1`, the IC50 against Cytochrome P450 3A4 is greater than 10000 nM; in series [13], 8000 nM; at Interstitial collagenase, greater than 10000 nM; on Collagenase 3, 430 nM; in series [12] it was 430 nM. Further, the microsomal CLint in [14] amounted to 107 µL/min/mg. In series [15], this compound returned a hepatocyte CLint of 56.9 µL/min/1e6 cells. The same compound registered a clearance in series [1] of 130 mL/min/kg. This compound also had a half-life in series [2] of 0.3 h. Moreover, the bioavailability in [16] came to 0%.
